The results in this text go back to ChEMBL document CHEMBL1157938, “Cytotoxicity and inhibition of DNA topoisomerase I of polyhydroxylated triterpenoids and triterpenoid glycosides” (Bioorg Med Chem Lett, 2010).

In one assay the test system is PC-3. The assay is described as follows: Cytotoxicity against human PC3 cells at 25 uM after 48 hrs by WST8 assay. The assay is classed as functional, cell-based. A general note: Tetrazolium assays rely on reduction of a dye to a coloured formazan, in cell work by metabolically active cells.
A further assay deals with T1, DNA topoisomerase 1 (Homo sapiens, UniProt P11387).
T1 sequence (P11387 whole entry): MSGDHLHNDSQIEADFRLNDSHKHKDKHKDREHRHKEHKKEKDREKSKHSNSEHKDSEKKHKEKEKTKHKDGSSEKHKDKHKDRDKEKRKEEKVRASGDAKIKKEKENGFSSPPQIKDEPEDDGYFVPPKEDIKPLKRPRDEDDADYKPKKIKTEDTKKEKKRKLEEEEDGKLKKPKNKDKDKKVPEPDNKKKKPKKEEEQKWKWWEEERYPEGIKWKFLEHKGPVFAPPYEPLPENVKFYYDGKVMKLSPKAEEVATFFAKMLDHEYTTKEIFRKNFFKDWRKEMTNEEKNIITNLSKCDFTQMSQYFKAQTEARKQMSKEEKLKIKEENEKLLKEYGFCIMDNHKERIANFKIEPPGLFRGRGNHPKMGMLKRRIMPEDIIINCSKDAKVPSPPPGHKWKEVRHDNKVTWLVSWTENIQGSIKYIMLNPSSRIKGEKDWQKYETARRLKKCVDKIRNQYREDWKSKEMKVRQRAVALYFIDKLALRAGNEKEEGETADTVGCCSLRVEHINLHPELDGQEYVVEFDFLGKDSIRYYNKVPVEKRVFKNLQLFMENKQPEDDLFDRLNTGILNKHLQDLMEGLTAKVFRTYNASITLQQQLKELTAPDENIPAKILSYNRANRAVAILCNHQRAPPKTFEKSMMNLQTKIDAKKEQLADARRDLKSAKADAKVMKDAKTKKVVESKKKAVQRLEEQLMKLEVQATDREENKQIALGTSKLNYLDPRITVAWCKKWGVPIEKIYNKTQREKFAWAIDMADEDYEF
As to the kind of experiment: Inhibition of human DNA topoisomerase 1-mediated relaxation of supercoiled DNA by gel electrophoresis.

Another assay relates to HL-60. The assay is described as follows: Cytotoxicity against human HL60 cells at 25 uM after 48 hrs by WST8 assay. The format is functional, cell-based.
The next assay relates to A549. The assay is described as follows: Cytotoxicity against human A549 cells at 25 uM after 48 hrs by WST8 assay. The assay is classed as functional, cell-based.
Another assay concerns PANC-1. As to the kind of experiment: Cytotoxicity against human PANC1 cells at 25 uM after 48 hrs by WST8 assay. The format is functional, cell-based.
Assay [1] deals with DNA topoisomerase 2-alpha (Homo sapiens, UniProt P11388). The assay is described as follows: Inhibition of human DNA topoisomerase 2-mediated relaxation of supercoiled DNA by gel electrophoresis.
Sequence of DNA topoisomerase 2-alpha (P11388 whole entry): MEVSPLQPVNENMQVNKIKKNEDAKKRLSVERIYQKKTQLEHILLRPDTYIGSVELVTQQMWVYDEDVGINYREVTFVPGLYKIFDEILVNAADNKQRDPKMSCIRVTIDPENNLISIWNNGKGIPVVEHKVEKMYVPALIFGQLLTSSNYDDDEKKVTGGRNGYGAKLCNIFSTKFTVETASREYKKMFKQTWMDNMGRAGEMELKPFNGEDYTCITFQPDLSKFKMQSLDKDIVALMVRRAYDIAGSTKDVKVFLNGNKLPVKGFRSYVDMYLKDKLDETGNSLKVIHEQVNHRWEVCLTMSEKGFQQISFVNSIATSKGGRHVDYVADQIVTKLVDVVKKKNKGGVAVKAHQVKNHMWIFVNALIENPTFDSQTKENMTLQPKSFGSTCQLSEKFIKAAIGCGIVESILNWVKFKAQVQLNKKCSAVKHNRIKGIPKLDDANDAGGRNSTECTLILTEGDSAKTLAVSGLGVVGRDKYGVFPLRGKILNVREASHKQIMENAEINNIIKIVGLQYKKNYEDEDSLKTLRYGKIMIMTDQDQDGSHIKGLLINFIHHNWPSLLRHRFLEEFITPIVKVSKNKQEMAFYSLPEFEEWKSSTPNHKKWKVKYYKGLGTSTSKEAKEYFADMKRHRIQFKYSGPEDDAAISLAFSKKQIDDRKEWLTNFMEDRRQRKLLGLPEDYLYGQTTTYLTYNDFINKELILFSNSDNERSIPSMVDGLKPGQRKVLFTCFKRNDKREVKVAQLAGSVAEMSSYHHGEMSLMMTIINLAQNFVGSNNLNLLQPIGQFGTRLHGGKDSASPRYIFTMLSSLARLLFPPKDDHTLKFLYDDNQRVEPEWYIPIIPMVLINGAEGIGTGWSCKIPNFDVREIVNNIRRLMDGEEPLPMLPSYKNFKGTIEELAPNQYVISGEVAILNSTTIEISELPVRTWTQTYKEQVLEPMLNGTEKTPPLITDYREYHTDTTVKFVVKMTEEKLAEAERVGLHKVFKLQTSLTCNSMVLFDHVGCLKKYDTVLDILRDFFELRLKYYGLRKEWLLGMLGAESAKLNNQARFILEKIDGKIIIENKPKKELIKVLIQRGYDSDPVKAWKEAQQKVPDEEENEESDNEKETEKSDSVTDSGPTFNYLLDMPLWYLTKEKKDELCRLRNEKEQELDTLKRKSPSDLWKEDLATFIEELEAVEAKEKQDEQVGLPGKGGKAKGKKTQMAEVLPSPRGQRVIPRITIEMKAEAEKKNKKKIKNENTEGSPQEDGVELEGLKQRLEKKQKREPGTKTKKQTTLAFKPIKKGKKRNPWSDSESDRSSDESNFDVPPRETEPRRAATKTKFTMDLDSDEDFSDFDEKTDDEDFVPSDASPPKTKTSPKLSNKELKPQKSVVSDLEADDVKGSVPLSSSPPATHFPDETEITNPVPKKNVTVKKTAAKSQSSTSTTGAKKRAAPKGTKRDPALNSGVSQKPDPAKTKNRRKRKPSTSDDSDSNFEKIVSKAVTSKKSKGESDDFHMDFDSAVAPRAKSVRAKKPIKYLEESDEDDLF

Calls of active or inactive are those of the source. The rule behind the calls is not given here.

In general, IC50 refers to the point on the concentration scale where inhibition reaches its midpoint. Lower therefore signals inhibition by little substance. As for `CC(C)=CCC[C@](C)(O)[C@H]1CC[C@]2(C)[C@@H]1[C@H](O)C[C@@H]1[C@@]3(C)CC[C@H](O)C(C)(C)[C@@H]3[C@@H](O[C@@H]3O[C@H](CO)[C@@H](O)[C@H](O)[C@H]3O[C@H]3O[C@@H](C)[C@H](O)[C@@H](O)[C@H]3O)C[C@]12C`, the “growth inhibition (GI)” value with PC-3, with HL-60, in the assay on A549 and in the assay on PANC-1 was “inactive” each time. Besides, the IC50 (against DNA topoisomerase 1; in assay [1]) was above 250 µM each time.
Consider `CC(C)=CCC[C@](C)(O[C@@H]1O[C@H](CO[C@@H]2OC[C@@H](O)[C@H](O)[C@H]2O)[C@@H](O)[C@H](O)[C@H]1O)[C@H]1CC[C@]2(C)[C@@H]1[C@H](O)C[C@@H]1[C@@]3(C)CC[C@H](O[C@@H]4O[C@H](CO)[C@@H](O)[C@H](O)[C@H]4O[C@@H]4O[C@H](CO)[C@@H](O)[C@H](O)[C@H]4O)C(C)(C)[C@@H]3CC[C@]12C` [GINSENOSIDE RB3], for which the “growth inhibition (GI)” value in the assay on PC-3, in the assay on HL-60, in the assay with A549 and in the assay on PANC-1 was “inactive” in each case. The IC50 (against DNA topoisomerase 1; in assay [1]) was above 250 µM throughout.
Turning to `C[C@H]1[C@H](C)CC[C@]2(C(=O)O[C@@H]3O[C@H](CO)[C@@H](O)[C@H](O)[C@H]3O[C@@H]3OC[C@H](O)[C@H](O)[C@H]3O)CC[C@]3(C(=O)O)C(=CC[C@@H]4[C@@]5(C)CC[C@H](O[C@@H]6O[C@H](CO)[C@@H](O)[C@H](O)[C@H]6O)C(C)(C)[C@@H]5CC[C@]43C)[C@H]12`, the “growth inhibition (GI)” value with PC-3, with HL-60, in the assay with A549 and with PANC-1 was “inactive” throughout. Also, the IC50 (against DNA topoisomerase 1; in assay [1]) was above 250 µM each time.
Regarding `CC(C)=CCC[C@@](C)(O)[C@H]1CC[C@]2(C)[C@@H]1[C@H](O)C[C@@H]1[C@@]3(C)CC[C@H](O)C(C)(C)[C@@H]3[C@@H](O[C@@H]3O[C@H](CO)[C@@H](O)[C@H](O)[C@H]3O[C@H]3O[C@@H](C)[C@H](O)[C@@H](O)[C@H]3O)C[C@]12C`, the “growth inhibition (GI)” value in the assay with PC-3, in the assay with HL-60, in the assay on A549 and with PANC-1 was “inactive” each time. Further, the IC50 (on DNA topoisomerase 1; in assay [1]) was above 250 µM each time.
As to `C[C@H]1[C@H](C)CC[C@]2(C(=O)O)CC[C@]3(C(=O)O)C(=CC[C@@H]4[C@@]5(C)C[C@@H](O)[C@H](O)C(C)(C)[C@@H]5CC[C@]43C)[C@H]12`, the “growth inhibition (GI)” value in the assay on PC-3, in the assay with HL-60, in the assay with A549 and in the assay with PANC-1 was “inactive” each time. Also, the 50% inhibitory concentration (IC50) (against DNA topoisomerase 1; in assay [1]) was above 250 µM each time.
On to `CC(C)=CCC[C@](C)(O[C@@H]1O[C@H](CO)[C@@H](O)[C@H](O)[C@H]1O)[C@H]1CC[C@]2(C)[C@@H]1[C@H](O)C[C@@H]1[C@@]3(C)CC[C@H](O)C(C)(C)[C@@H]3[C@@H](O[C@@H]3O[C@H](CO)[C@@H](O)[C@H](O)[C@H]3O[C@@H]3O[C@@H](C)[C@H](O)[C@@H](O)[C@H]3O)C[C@]12C` [GINSENOSIDE RE], for which the “growth inhibition (GI)” value with PC-3, in the assay with HL-60, in the assay on A549 and in the assay on PANC-1 was “inactive” each time. For the same molecule, the IC50 (at DNA topoisomerase 1; in assay [1]) was above 250 µM in each case.
Take `C=C(C)[C@@H]1CC[C@]2(C)CC[C@]3(C)[C@@H](CC[C@@H]4[C@@]5(C)CC[C@H](OC(C)=O)C(C)(C)[C@@H]5CC[C@]43C)[C@H]12`: the “growth inhibition (GI)” value in the assay with PC-3, with HL-60, in the assay on A549 and in the assay with PANC-1 was “inactive” in each case. Further, the IC50 in assay [1] was above 250 µM.
Consider `CC(C)=CCC[C@](C)(O[C@@H]1O[C@H](CO)[C@@H](O)[C@H](O)[C@H]1O)[C@H]1CC[C@]2(C)[C@@H]1[C@H](O)C[C@@H]1[C@@]3(C)CC[C@H](O[C@@H]4O[C@H](CO)[C@@H](O)[C@H](O)[C@H]4O[C@@H]4O[C@H](CO)[C@@H](O)[C@H](O)[C@H]4O)C(C)(C)[C@@H]3CC[C@]12C` [GINSENOSIDE RD], for which the “growth inhibition (GI)” value with PC-3, with HL-60, with A549 and in the assay on PANC-1 was “inactive” throughout. In addition, the IC50 (against DNA topoisomerase 1; in assay [1]) was above 250 µM in each case.
For `CC(C)=CCC[C@](C)(O[C@@H]1O[C@H](CO[C@@H]2O[C@H](CO)[C@@H](O)[C@H](O)[C@H]2O)[C@@H](O)[C@H](O)[C@H]1O)[C@H]1CC[C@]2(C)[C@@H]1[C@H](O)C[C@@H]1[C@@]3(C)CC[C@H](O[C@@H]4O[C@H](CO)[C@@H](O)[C@H](O)[C@H]4O[C@@H]4O[C@H](CO)[C@@H](O)[C@H](O)[C@H]4O)C(C)(C)[C@@H]3CC[C@]12C` [GINSENOSIDE RB1], the “growth inhibition (GI)” value with PC-3, in the assay on HL-60, with A549 and with PANC-1 was “inactive” each time. Also, the IC50 (at DNA topoisomerase 1; in assay [1]) was above 250 µM each time.
In the case of `C[C@H]1[C@H](C)CC[C@]2(C(=O)O[C@@H]3O[C@H](CO)[C@@H](O)[C@H](O)[C@H]3O)CC[C@]3(C(=O)O)C(=CC[C@@H]4[C@@]5(C)CC[C@H](O[C@@H]6O[C@H](CO)[C@@H](O[C@H]7O[C@@H](C)[C@H](O)[C@@H](O)[C@H]7O)[C@H](O)[C@H]6O)C(C)(C)[C@@H]5CC[C@]43C)[C@H]12`, the “growth inhibition (GI)” value in the assay on PC-3, with HL-60, in the assay on A549 and in the assay with PANC-1 was “inactive” throughout. For the same molecule, the IC50 (at DNA topoisomerase 1; in assay [1]) was above 250 µM each time.
For `C[C@H]1[C@H](C)CC[C@]2(C(=O)O)CC[C@]3(C(=O)O)C(=CC[C@@H]4[C@@]5(C)CC[C@H](O[C@H]6O[C@@H](C)[C@H](O)[C@@H](O)[C@H]6O)C(C)(C)[C@@H]5CC[C@]43C)[C@H]12`, the “growth inhibition (GI)” value in the assay with PC-3, in the assay with HL-60, in the assay with A549 and in the assay with PANC-1 was “inactive” in each case. Besides, the IC50 (against DNA topoisomerase 1; in assay [1]) was above 250 µM each time.
Regarding `CC(C)=CCC[C@](C)(O[C@@H]1O[C@H](CO[C@@H]2OC[C@H](O)[C@H](O)[C@H]2O)[C@@H](O)[C@H](O)[C@H]1O)[C@H]1CC[C@]2(C)[C@@H]1[C@H](O)C[C@@H]1[C@@]3(C)CC[C@H](O)C(C)(C)[C@@H]3[C@@H](O)C[C@]12C` [GINSENOSIDE F3], the “growth inhibition (GI)” value with PC-3, in the assay on HL-60, with A549 and with PANC-1 was “inactive” in each case. Besides, the IC50 (on DNA topoisomerase 1; in assay [1]) was above 250 µM throughout.
Consider `CC(C)=CCC[C@](C)(O)[C@H]1CC[C@]2(C)[C@@H]1[C@H](O)C[C@@H]1[C@@]3(C)CC[C@H](O[C@@H]4O[C@H](CO)[C@@H](O)[C@H](O)[C@H]4O[C@@H]4O[C@H](CO)[C@@H](O)[C@H](O)[C@H]4O)C(C)(C)[C@@H]3CC[C@]12C`, for which the “growth inhibition (GI)” value with PC-3, with HL-60, in the assay on A549 and in the assay with PANC-1 was “inactive” each time. The IC50 (on DNA topoisomerase 1; in assay [1]) was above 250 µM in each case.
As for `C=C(C)[C@@H]1CC[C@]2(C)CC[C@]3(C)[C@H](CC[C@@H]4[C@@]5(C)CC[C@H](O)C(C)(C)[C@@H]5CC[C@]43C)[C@@H]12` [LUPEOL], the “growth inhibition (GI)” value in the assay with PC-3, in the assay with HL-60, in the assay on A549 and with PANC-1 was “inactive” throughout. This molecule registered an IC50 in assay [1] above 250 µM.
